Reference: patent publication US20240329286A1, “LIGHT ABSORPTION FILTER, OPTICAL FILTER, MANUFACTURING METHOD FOR OPTICAL FILTER, ORGANIC ELECTROLUMINESCENT DISPLAY DEVICE, INORGANIC ELECTROLUMINESCENT DISPLAY DEVICE, AND LIQUID CRYSTAL DISPLAY DEVICE” (FUJIFILM Corporation, priority 2022, published 2024)

Assay: pKaH (pKa of the conjugate acid) by titration with sodium hydroxide aqueous solution
Type: physicochemical
Details: water/methanol=50/50 (volume ratio), 25° C.
From the text: The pKa can be calculated by dropwise adding a 0.01 mol/L sodium hydroxide aqueous solution to a mixed solution of water/methanol=50/50 (in terms of volume ratio) of a measurement sample (a conjugate acid of the compound B) and reading the amount of the sodium hydroxide aqueous solution that has been dropwise added up to the half-equivalent point.

pKaH	Compound
4.3	c1ccc(-c2ccnc3ccccc23)cc1 [4-Phenylquinoline]

Same assay, conditions: water/methanol=50/50 (volume ratio), 25° C., Table 2

pKaH of compound B	Compound
4.2	c1ccc2ncccc2c1 [Quinoline]
5.1	Cc1ccnc2ccccc12 [4-methylquinoline]
5.7	Cc1cc(C)c2ccccc2n1 [2,4-dimethylquinoline]

The next lines start with the compound.

Compound	pKaH of compound B
Cc1ccc2ccccc2n1 [2-methylquinoline]	4.8
Cc1cc2ccccc2cn1 [3-methylisoquinoline]	5.2
c1ccc2cnccc2c1 [Isoquinoline]	4.7
